Results taken from ChEMBL document CHEMBL4507305, “Data for DCP probe TP-024” (2021).

Key:
[1] = target: Serine/threonine-protein kinase PAK 1 (Homo sapiens) (UniProt Q13153); details: Compound concentration 1000.0 nM
[2] = target: Cytoplasmic tyrosine-protein kinase BMX (Homo sapiens) (UniProt P51813); details: Compound concentration 1000.0 nM
[3] = target: Serine/threonine-protein kinase TAO2 (Homo sapiens) (UniProt Q9UL54); details: Compound concentration 1000.0 nM
[4] = target: Casein kinase I isoform gamma-3 (Homo sapiens) (UniProt Q9Y6M4); details: Compound concentration 1000.0 nM
[5] = target: Serine/threonine-protein kinase N2 (Homo sapiens) (UniProt Q16513); details: Compound concentration 1000.0 nM
[6] = target: Casein kinase I isoform epsilon (Homo sapiens) (UniProt P49674); details: Compound concentration 1000.0 nM
[7] = target: Receptor tyrosine-protein kinase erbB-2 (Homo sapiens) (UniProt P04626); details: Compound concentration 1000.0 nM
[8] = target: Cyclin-dependent kinase-like 5 (Homo sapiens) (UniProt O76039); details: Compound concentration 1000.0 nM
Chain of Cyclin-dependent kinase-like 5 (Homo sapiens) (O76039 whole entry): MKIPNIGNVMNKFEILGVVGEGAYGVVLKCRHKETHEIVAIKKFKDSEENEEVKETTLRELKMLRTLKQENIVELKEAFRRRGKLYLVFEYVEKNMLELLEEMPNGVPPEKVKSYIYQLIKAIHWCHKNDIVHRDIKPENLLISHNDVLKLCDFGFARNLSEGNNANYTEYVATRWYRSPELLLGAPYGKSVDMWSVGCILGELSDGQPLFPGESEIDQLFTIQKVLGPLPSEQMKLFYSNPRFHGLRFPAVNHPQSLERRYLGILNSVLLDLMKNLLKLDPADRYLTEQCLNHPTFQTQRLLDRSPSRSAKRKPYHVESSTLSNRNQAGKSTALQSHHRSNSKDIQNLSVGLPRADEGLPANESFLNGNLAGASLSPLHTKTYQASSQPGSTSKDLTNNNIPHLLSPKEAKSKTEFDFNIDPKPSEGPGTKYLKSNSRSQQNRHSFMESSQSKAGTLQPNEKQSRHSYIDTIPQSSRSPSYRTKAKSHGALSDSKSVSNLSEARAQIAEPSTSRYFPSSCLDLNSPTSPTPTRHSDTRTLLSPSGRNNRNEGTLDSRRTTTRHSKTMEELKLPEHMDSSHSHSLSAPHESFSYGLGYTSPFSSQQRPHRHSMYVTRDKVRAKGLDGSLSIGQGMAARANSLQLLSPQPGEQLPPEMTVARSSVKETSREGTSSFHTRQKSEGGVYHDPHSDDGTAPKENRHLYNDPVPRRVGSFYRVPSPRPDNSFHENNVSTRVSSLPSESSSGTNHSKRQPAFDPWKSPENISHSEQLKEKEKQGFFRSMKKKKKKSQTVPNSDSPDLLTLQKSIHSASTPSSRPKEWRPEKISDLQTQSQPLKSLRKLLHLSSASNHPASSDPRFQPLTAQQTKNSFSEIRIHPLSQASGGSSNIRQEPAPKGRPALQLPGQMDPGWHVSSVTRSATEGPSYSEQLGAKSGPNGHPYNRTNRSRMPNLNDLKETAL

[9] = target: Mitogen-activated protein kinase kinase kinase 19 (Homo sapiens) (UniProt Q56UN5); details: Compound concentration 1000.0 nM
[10] = target: Dual specificity tyrosine-phosphorylation-regulated kinase 2 (Homo sapiens) (UniProt Q92630); details: Compound concentration 1000.0 nM
[11] = tested on: Fibroblast growth factor receptor 3 (Homo sapiens), P22607 [G697C]; details: Compound concentration 1000.0 nM
[12] = target: Ephrin type-A receptor 2 (Homo sapiens) (UniProt P29317); details: Compound concentration 1000.0 nM
[13] = target: AP2-associated protein kinase 1 (Homo sapiens) (UniProt Q2M2I8); details: Compound concentration 1000.0 nM
[14] = target: NUAK family SNF1-like kinase 2 (Homo sapiens) (UniProt Q9H093); details: Compound concentration 1000.0 nM
[15] = target: Homeodomain-interacting protein kinase 2 (Homo sapiens) (UniProt Q9H2X6); details: Compound concentration 1000.0 nM
[16] = target: Cyclin-dependent kinase 17 (Homo sapiens) (UniProt Q00537); details: Compound concentration 1000.0 nM
[17] = target: Homeodomain-interacting protein kinase 1 (Homo sapiens) (UniProt Q86Z02); details: Compound concentration 1000.0 nM
[18] = tested on: Tyrosine-protein kinase ABL1 (Homo sapiens), P00519 [F317L]; details: Compound concentration 1000.0 nM
[19] = target: Phosphorylase b kinase gamma catalytic chain, skeletal muscle/heart isoform (Homo sapiens) (UniProt Q16816); details: Compound concentration 1000.0 nM
Rattus norvegicus = species: Rattus norvegicus; details: Compound concentration 10.0 uM
[20] = target: Serine/threonine-protein kinase SIK2 (Homo sapiens) (UniProt Q9H0K1); details: Compound concentration 1000.0 nM
[21] = target: Alpha-1B adrenergic receptor (Homo sapiens) (UniProt P35368); details: Compound concentration 10.0 uM
[22] = target: 5-hydroxytryptamine receptor 7 (Homo sapiens) (UniProt P34969); details: Compound concentration 10.0 uM
[23] = target: Calcium/calmodulin-dependent protein kinase type II subunit alpha (Homo sapiens) (UniProt Q9UQM7); details: Compound concentration 1000.0 nM
Chain of Calcium/calmodulin-dependent protein kinase type II subunit alpha (Homo sapiens) (Q9UQM7 whole entry): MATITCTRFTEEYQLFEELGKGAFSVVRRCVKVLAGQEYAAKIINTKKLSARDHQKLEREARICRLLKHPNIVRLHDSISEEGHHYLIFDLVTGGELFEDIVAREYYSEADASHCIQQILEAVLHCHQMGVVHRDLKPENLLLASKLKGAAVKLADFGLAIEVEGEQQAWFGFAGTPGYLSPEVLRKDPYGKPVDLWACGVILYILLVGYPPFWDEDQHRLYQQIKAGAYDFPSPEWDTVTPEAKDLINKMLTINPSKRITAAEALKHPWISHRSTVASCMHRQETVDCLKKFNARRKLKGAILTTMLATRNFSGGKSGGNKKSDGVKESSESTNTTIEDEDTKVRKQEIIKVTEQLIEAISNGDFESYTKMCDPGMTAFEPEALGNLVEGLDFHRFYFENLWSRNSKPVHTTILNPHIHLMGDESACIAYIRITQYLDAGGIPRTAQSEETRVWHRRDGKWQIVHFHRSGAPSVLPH

[24] = target: Cyclin-dependent kinase-like 3 (Homo sapiens) (UniProt Q8IVW4); details: Compound concentration 1000.0 nM
[25] = target: cAMP-dependent protein kinase catalytic subunit alpha (Homo sapiens) (UniProt P17612); details: Compound concentration 1000.0 nM
[26] = target: Interleukin-1 receptor-associated kinase 4 (Homo sapiens) (UniProt Q9NWZ3); details: Compound concentration 1000.0 nM
[27] = target: Serine/threonine-protein kinase 3 (Homo sapiens) (UniProt Q13188); details: Compound concentration 1000.0 nM
[28] = target: Serine/threonine-protein kinase 33 (Homo sapiens) (UniProt Q9BYT3); details: Compound concentration 1000.0 nM
[29] = tested on: Tyrosine-protein kinase ABL1 (Homo sapiens), P00519 [M351T]; details: Compound concentration 1000.0 nM
[30] = target: Phosphorylase b kinase regulatory subunit alpha, liver isoform (Homo sapiens) (UniProt P46019); details: Compound concentration 1000.0 nM
[31] = target: Interferon-induced, double-stranded RNA-activated protein kinase (Homo sapiens) (UniProt P19525); details: Compound concentration 1000.0 nM
[32] = target: Mitogen-activated protein kinase kinase kinase kinase 1 (Homo sapiens) (UniProt Q92918); details: Compound concentration 1000.0 nM
[33] = tested on: Tyrosine-protein kinase ABL1 (Homo sapiens), P00519 [Y253F]; details: Compound concentration 1000.0 nM
[34] = target: Serine/threonine-protein kinase PAK 2 (Homo sapiens) (UniProt Q13177); details: Compound concentration 1000.0 nM
[35] = target: TGF-beta receptor type-2 (Homo sapiens) (UniProt P37173); details: Compound concentration 1000.0 nM
[36] = target: Myosin light chain kinase (Homo sapiens) (UniProt Q32MK0); details: Compound concentration 1000.0 nM
Chain of Myosin light chain kinase (Homo sapiens) (Q32MK0 whole entry): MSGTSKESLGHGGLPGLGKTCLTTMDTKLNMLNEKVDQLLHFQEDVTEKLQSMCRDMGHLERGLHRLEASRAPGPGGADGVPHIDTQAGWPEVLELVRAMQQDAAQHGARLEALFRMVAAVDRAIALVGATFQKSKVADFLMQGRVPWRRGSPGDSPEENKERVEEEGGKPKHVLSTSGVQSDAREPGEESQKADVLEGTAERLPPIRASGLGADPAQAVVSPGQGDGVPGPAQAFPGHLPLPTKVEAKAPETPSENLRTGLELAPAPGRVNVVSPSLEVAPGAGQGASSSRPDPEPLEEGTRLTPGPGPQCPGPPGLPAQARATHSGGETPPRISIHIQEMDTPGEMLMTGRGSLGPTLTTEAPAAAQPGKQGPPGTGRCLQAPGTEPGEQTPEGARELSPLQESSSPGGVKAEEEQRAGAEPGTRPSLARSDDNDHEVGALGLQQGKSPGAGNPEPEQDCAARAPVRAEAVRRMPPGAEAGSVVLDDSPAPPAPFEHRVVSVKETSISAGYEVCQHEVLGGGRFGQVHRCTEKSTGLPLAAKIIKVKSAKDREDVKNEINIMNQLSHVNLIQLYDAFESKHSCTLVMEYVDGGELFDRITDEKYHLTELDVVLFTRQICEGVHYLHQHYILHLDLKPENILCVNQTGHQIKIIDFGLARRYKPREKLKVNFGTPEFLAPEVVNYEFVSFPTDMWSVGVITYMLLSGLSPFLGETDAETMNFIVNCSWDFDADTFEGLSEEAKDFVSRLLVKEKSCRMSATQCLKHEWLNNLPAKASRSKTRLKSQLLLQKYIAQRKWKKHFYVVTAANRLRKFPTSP

[37] = target: Myosin light chain kinase family member 4 (Homo sapiens) (UniProt Q86YV6); details: Compound concentration 1000.0 nM
Chain of Myosin light chain kinase family member 4 (Homo sapiens) (Q86YV6 whole entry): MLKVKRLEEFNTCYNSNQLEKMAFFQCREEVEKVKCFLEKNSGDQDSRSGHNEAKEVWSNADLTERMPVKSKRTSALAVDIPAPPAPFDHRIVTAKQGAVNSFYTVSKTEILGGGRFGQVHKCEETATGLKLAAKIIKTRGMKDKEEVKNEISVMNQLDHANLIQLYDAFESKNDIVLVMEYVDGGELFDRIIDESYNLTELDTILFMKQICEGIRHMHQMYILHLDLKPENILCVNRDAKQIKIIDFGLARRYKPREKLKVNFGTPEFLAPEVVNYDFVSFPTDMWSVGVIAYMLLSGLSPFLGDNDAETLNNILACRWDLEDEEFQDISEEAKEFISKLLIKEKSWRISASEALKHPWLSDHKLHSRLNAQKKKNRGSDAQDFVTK

[38] = target: Death-associated protein kinase 2 (Homo sapiens) (UniProt Q9UIK4); details: Compound concentration 1000.0 nM
Chain of Death-associated protein kinase 2 (Homo sapiens) (Q9UIK4 whole entry, looked up): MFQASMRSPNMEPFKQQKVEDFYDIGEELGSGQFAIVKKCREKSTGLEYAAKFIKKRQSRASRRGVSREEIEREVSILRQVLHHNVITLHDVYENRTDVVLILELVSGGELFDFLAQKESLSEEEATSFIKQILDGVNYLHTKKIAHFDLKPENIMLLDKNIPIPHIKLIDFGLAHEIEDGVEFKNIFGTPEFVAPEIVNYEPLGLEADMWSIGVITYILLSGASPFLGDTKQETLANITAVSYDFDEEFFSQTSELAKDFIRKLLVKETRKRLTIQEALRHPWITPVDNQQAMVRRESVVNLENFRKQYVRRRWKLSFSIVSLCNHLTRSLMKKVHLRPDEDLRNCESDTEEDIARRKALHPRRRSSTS

[39] = target: Ribosomal protein S6 kinase alpha-5 (Homo sapiens) (UniProt O75582); details: Compound concentration 1000.0 nM
[40] = target: Tyrosine-protein kinase HCK (Homo sapiens) (UniProt P08631); details: Compound concentration 1000.0 nM
[41] = target: Cyclin-G-associated kinase (Homo sapiens) (UniProt O14976); details: Compound concentration 1000.0 nM
Chain of Cyclin-G-associated kinase (Homo sapiens) (O14976 whole entry): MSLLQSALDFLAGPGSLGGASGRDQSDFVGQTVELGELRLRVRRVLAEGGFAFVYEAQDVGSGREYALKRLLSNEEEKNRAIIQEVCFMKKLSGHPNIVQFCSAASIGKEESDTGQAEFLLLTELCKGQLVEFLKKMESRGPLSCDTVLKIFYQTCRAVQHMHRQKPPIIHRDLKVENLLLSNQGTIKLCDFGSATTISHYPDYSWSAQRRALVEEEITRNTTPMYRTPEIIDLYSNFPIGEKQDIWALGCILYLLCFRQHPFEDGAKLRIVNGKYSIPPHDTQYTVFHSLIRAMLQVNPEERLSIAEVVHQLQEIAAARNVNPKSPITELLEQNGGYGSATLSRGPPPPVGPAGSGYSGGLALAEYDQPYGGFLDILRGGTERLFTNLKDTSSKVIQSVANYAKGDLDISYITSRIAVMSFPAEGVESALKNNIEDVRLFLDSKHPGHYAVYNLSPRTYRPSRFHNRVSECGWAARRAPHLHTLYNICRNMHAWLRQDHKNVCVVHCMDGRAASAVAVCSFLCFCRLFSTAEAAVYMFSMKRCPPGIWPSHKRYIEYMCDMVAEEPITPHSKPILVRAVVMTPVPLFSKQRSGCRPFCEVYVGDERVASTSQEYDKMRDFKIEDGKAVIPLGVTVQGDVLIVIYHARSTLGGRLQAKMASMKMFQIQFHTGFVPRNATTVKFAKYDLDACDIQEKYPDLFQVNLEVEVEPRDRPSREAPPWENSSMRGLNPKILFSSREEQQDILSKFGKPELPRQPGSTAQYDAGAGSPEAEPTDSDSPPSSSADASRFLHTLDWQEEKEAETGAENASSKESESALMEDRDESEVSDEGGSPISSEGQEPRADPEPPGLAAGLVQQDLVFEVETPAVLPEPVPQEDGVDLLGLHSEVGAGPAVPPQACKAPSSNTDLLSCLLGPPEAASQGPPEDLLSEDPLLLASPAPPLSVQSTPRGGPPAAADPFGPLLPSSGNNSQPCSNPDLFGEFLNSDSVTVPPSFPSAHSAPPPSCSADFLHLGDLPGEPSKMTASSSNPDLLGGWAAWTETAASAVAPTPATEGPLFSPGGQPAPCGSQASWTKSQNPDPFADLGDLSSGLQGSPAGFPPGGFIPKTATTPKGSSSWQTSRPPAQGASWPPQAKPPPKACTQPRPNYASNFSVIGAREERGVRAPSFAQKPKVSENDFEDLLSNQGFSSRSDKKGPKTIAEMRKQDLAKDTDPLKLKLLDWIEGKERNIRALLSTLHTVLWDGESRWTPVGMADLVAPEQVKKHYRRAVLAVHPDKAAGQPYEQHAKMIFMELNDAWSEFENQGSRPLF

[42] = target: Serine/threonine-protein kinase N1 (Homo sapiens) (UniProt Q16512); details: Compound concentration 1000.0 nM
[43] = target: cAMP-dependent protein kinase catalytic subunit beta (Homo sapiens) (UniProt P22694); details: Compound concentration 1000.0 nM
[44] = target: Serine/threonine-protein kinase DCLK3 (Homo sapiens) (UniProt Q9C098); details: Compound concentration 1000.0 nM
Chain of Serine/threonine-protein kinase DCLK3 (Homo sapiens) (Q9C098 whole entry): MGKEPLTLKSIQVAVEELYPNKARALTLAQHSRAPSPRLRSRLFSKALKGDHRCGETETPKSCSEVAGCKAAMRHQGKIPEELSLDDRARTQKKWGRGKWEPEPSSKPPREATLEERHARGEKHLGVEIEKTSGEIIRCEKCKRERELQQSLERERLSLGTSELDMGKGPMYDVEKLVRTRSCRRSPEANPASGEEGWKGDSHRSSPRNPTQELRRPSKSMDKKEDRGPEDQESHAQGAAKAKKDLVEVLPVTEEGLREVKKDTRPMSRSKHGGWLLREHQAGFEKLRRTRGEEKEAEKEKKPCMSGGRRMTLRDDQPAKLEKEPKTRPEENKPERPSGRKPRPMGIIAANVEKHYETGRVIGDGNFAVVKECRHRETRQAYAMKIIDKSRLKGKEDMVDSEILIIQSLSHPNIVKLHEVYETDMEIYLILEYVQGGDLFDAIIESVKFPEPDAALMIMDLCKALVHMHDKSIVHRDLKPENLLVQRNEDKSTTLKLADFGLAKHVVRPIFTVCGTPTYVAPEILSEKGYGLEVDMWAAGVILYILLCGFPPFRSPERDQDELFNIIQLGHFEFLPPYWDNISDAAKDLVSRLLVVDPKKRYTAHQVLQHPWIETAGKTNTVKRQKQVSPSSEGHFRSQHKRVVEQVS

[45] = target: Activin receptor type-1B (Homo sapiens) (UniProt P36896); details: Compound concentration 1000.0 nM

SMILES: Cc1nc(Cc2cccc(C(F)(F)F)c2)sc1-c1ccc(C(N)=O)nc1 [TP-024n]
- residual activity [1]: 84%
- residual activity [2]: 59%
- residual activity [3]: 86%
- residual activity [4]: 93%
- residual activity [5]: 91%
- residual activity [6]: 100%
- residual activity [7]: 100%
- residual activity [8]: 100%
- residual activity [9]: 100%
- residual activity [10]: 90%
- residual activity [11]: 76%
- residual activity [12]: 68%
- residual activity [13]: 96%
- residual activity [14]: 100%
- residual activity [15]: 100%
- residual activity [16]: 83%
- residual activity [17]: 92%
- residual activity [18]: 89%
- residual activity [19]: 84%
- inhibition (Rattus norvegicus): 4.9%
- residual activity [20]: 90%
- inhibition [21]: 24.6%
- inhibition [22]: 16.4%
- residual activity [23]: 91%
- residual activity [24]: 100%
- residual activity [25]: 75%
- residual activity [26]: 100%
- residual activity [27]: 97%
- residual activity [28]: 91%
- residual activity [29]: 100%
- residual activity [30]: 100%
- residual activity [31]: 49%
- residual activity [32]: 100%
- residual activity [33]: 88%
- residual activity [34]: 60%
- residual activity [35]: 100%
- residual activity [36]: 81%
- residual activity [37]: 91%
- residual activity [38]: 89%
- residual activity [39]: 100%
- residual activity [40]: 100%
- residual activity [41]: 91%
- residual activity [42]: 98%
- residual activity [43]: 92%
- residual activity [44]: 100%
- residual activity [45]: 75%

SMILES: Cc1cc(-n2nc(Cc3cc(F)cc(C(F)(F)F)c3)nc2C)ccc1C(N)=O [TP-024]
- residual activity [1]: 95%
- residual activity [2]: 100%
- residual activity [3]: 91%
- residual activity [4]: 95%
- residual activity [5]: 100%
- residual activity [6]: 100%
- residual activity [7]: 99%
- residual activity [8]: 100%
- residual activity [9]: 98%
- residual activity [10]: 91%
- residual activity [11]: 100%
- residual activity [12]: 100%
- residual activity [13]: 100%
- residual activity [14]: 100%
- residual activity [15]: 100%
- residual activity [16]: 77%
- residual activity [17]: 92%
- residual activity [18]: 100%
- residual activity [19]: 98%
- inhibition (Rattus norvegicus): 7.23%
- residual activity [20]: 100%
- inhibition [21]: 6.84%
- inhibition [22]: 21.4%
- residual activity [23]: 99%
- residual activity [24]: 83%
- residual activity [25]: 100%
- residual activity [26]: 100%
- residual activity [27]: 100%
- residual activity [28]: 100%
- residual activity [29]: 100%
- residual activity [30]: 100%
- residual activity [31]: 62%
- residual activity [32]: 100%
- residual activity [33]: 90%
- residual activity [34]: 75%
- residual activity [35]: 100%
- residual activity [36]: 92%
- residual activity [37]: 100%
- residual activity [38]: 95%
- residual activity [39]: 97%
- residual activity [40]: 100%
- residual activity [41]: 100%
- residual activity [42]: 100%
- residual activity [43]: 100%
- residual activity [44]: 94%
- residual activity [45]: 93%
